From PubChem BioAssay AID192 (DTP/NCI, 2004)
Toxic doses and inconclusive results are not listed.

System: BDF1 mice, B16 melanoma ip, median survival T/C
Test: NCI In Vivo Anticancer Drug Screen. Data for tumor model B16 Melanoma (intraperitoneal) in B6D2F1 (BDF1) mice
Conditions: endpoint: median survival time, higher = longer survival
In short: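 In this screen, activity was judged from survival or tumor size in treated versus vehicle-treated tumor-bearing mice, reported as T/C.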

[1] = dose: 50.0 mg/kg/injection, schedule: Q01DX009 (ip), vehicle: saline with Tween-80
[2] = dose: 100.0 mg/kg/injection, schedule: Q01DX009 (ip), vehicle: saline with Tween-80
[3] = dose: 200.0 mg/kg/injection, schedule: Q01DX009 (ip), vehicle: saline with Tween-80
[4] = dose: 12.5 mg/kg/injection, schedule: Q01DX009 (ip), vehicle: saline with Tween-80
[5] = dose: 25.0 mg/kg/injection, schedule: Q01DX009 (ip), vehicle: saline with Tween-80
[6] = dose: 100.0 mg/kg/injection, schedule: Q01DX009 (ip), vehicle: Klucel (hydroxypropylcellulose) (HPC)
[7] = dose: 100.0 mg/kg/injection, schedule: Q04DX003 (ip), vehicle: Klucel (hydroxypropylcellulose) (HPC)
[8] = dose: 200.0 mg/kg/injection, schedule: Q04DX003 (ip), vehicle: Klucel (hydroxypropylcellulose) (HPC)
[9] = dose: 400.0 mg/kg/injection, schedule: Q04DX003 (ip), vehicle: Klucel (hydroxypropylcellulose) (HPC)
[10] = dose: 200.0 mg/kg/injection, schedule: Q01DX009 (ip), vehicle: Klucel (hydroxypropylcellulose) (HPC)

CCCCNC(=O)Nc1ccc(C(=O)OCCCC)cc1
T/C [1]: 96 % of control
T/C [2]: 95 % of control
T/C [3]: 93 % of control

OC(C(c1ccccc1)c1ccccn1)(C(F)(F)F)C(F)(F)F (centres undefined)
T/C (dose: 66.0 mg/kg/injection, schedule: Q04DX003 (ip), vehicle: saline with Tween-80): 112 % of control
T/C [2]: 110 % of control
T/C (dose: 100.0 mg/kg/injection, schedule: Q04DX003 (ip), vehicle: saline with Tween-80): 117 % of control
T/C (dose: 150.0 mg/kg/injection, schedule: Q04DX003 (ip), vehicle: saline with Tween-80): 115 % of control
T/C [3]: 112 % of control
T/C (dose: 400.0 mg/kg/injection, schedule: Q01DX009 (ip), vehicle: saline with Tween-80): 105 % of control

CCOC(=O)C1C2OC(=O)C(C(=O)C2CN(CCCl)CCCl)C1C1CC=C(CC2=CCC(C3C4C(=O)OC(C(CN(CCCl)CCCl)C4=O)C3C(=O)OCC)CC2)CC1 (centres undefined)
T/C (dose: 12.5 mg/kg/injection, schedule: Q01DX009 (ip), vehicle: Klucel (hydroxypropylcellulose) (HPC)): 107 % of control
T/C [4]: 113 % of control
T/C (dose: 25.0 mg/kg/injection, schedule: Q01DX009 (ip), vehicle: Klucel (hydroxypropylcellulose) (HPC)): 118 % of control
T/C [5]: 119 % of control
T/C [1]: 150 % of control
T/C [6]: 153 % of control
T/C [2]: 174 % of control

Cc1ccc([N+](=O)[O-])c(OC(=O)Nc2ccccc2Cl)c1
T/C [7]: 100 % of control
T/C [8]: 93 % of control
T/C [9]: 93 % of control

CCCCCCCCNc1cc2c3c(c1)CCCN3CCC2
T/C (dose: 0.75 mg/kg/injection, schedule: Q01DX009 (ip), vehicle: Klucel (hydroxypropylcellulose) (HPC)): 88 % of control
T/C (dose: 1.5 mg/kg/injection, schedule: Q01DX009 (ip), vehicle: Klucel (hydroxypropylcellulose) (HPC)): 97 % of control
T/C (dose: 6.0 mg/kg/injection, schedule: Q01DX009 (ip), vehicle: Klucel (hydroxypropylcellulose) (HPC)): 90 % of control

CC(=O)Oc1cccc(C)c1
T/C [3]: 106 % of control

O=C(COc1ccc(Cl)cc1)Nc1ccccc1C(F)(F)F
T/C [7]: 90 % of control
T/C [8]: 92 % of control
T/C [9]: 90 % of control

O=CNC(CSC(=O)c1ccccc1)C(=O)O (centres undefined)
T/C (dose: 50.0 mg/kg/injection, schedule: Q01DX009 (ip), vehicle: Klucel (hydroxypropylcellulose) (HPC)): 100 % of control
T/C [6]: 100 % of control
T/C [10]: 94 % of control

COc1ccccc1NC(=O)Oc1c(C(C)C)cccc1C(C)C
T/C [6]: 93 % of control
T/C [10]: 90 % of control
T/C (dose: 400.0 mg/kg/injection, schedule: Q01DX009 (ip), vehicle: Klucel (hydroxypropylcellulose) (HPC)): 93 % of control

C=C1C(=O)O[C@@H]2/C=C(\C)CC/C=C(/COC(C)=O)C[C@@H](OC(C)=O)[C@@H]12
T/C (dose: 5.0 mg/kg/injection, schedule: Q01DX009 (ip), vehicle: saline with Tween-80): 107 % of control
T/C (dose: 10.0 mg/kg/injection, schedule: Q01DX009 (ip), vehicle: saline with Tween-80): 99 % of control
T/C (dose: 18.0 mg/kg/injection, schedule: Q01DX009 (ip), vehicle: acetone): 95 % of control
T/C (dose: 20.0 mg/kg/injection, schedule: Q01DX009 (ip), vehicle: saline with Tween-80): 104 % of control

C#CC(C)(C)OCC(CCl)OC(N)=O (centres undefined)
T/C [4]: 91 % of control
T/C [5]: 100 % of control
T/C [1]: 104 % of control
T/C [2]: 93 % of control
T/C [3]: 95 % of control

CCCC(NC(=O)C(C)Br)C(=O)O (centres undefined)
T/C [1]: 101 % of control
T/C [2]: 87 % of control

NC(N)=Nc1nc2ccccc2s1
T/C (dose: 25.0 mg/kg/injection, schedule: Q04DX003 (ip), vehicle: Klucel (hydroxypropylcellulose) (HPC)): 105 % of control
T/C (dose: 50.0 mg/kg/injection, schedule: Q04DX003 (ip), vehicle: Klucel (hydroxypropylcellulose) (HPC)): 97 % of control
T/C [7]: 97 % of control

CC(C)NCC(O)c1ccc(O)c(O)c1 (centres undefined)
T/C (dose: 17.5 mg/kg/injection, schedule: Q01DX009 (ip), vehicle: Klucel (hydroxypropylcellulose) (HPC)): 101 % of control
T/C (dose: 35.0 mg/kg/injection, schedule: Q01DX009 (ip), vehicle: Klucel (hydroxypropylcellulose) (HPC)): 99 % of control
T/C (dose: 70.0 mg/kg/injection, schedule: Q01DX009 (ip), vehicle: Klucel (hydroxypropylcellulose) (HPC)): 94 % of control
